Assay results from PMC7342775 (European journal of medicinal chemistry, 2020).

How the values were obtained:
α1β3γ2 GABAAR [1] = settings: cited from earlier work; for selectivity favoring the etomidate site / selectivity favoring the R-mTFD-MPAB sites: 4-substituted propofols
α1β3γ2L GABAARs [2] = molecular target: T1, α1β3γ2L GABAARs (Homo sapiens, UniProt P14867+P18507+P28472); assay: Modulation of [3H]muscimol binding, native HEK cell membranes
α1β3γ2 GABAAR [3] = assay: Selectivity between etomidate and R-mTFD-MPAB sites; format: binding, human
α1β3γ2L GABAARs [4] = molecular target: T1, α1β3γ2L GABAARs; assay: Two-microelectrode voltage-clamp electrophysiology in Xenopus oocytes, wild type
α1β3 GABAARs = molecular target: T2, α1β3 GABAARs (Homo sapiens, UniProt P14867+P28472); assay: Modulation of [3H]muscimol binding, α1β3 receptors
T2 sequence (P14867 28-456): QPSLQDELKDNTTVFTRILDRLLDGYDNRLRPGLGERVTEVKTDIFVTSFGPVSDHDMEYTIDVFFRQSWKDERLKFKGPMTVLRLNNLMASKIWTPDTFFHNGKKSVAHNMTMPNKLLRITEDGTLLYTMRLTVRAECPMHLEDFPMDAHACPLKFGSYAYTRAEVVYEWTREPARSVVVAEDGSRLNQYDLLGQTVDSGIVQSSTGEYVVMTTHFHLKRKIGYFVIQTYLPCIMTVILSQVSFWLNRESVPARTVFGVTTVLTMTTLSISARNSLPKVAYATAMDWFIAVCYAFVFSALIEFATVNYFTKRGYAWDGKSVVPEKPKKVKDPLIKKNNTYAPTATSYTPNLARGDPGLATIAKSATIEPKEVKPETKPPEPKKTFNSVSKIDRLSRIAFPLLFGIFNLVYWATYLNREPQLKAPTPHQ
T2 sequence (P28472 26-473): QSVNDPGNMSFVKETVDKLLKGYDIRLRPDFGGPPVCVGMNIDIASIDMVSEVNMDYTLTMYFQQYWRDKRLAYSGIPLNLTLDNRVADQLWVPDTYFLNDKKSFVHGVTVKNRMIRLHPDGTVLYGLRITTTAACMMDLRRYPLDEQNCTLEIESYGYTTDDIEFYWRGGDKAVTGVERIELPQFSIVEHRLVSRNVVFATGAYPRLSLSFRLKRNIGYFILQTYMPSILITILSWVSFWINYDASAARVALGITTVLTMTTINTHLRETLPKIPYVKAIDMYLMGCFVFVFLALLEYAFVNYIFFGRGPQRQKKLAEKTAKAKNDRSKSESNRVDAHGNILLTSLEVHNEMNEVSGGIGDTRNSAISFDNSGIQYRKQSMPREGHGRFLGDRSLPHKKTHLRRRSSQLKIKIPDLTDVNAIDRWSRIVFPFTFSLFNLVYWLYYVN

α1β3γ2L GABAARs [5] = molecular target: T1, α1β3γ2L GABAARs; assay: [3H]pTFD-di-iPr-BnOH photolabeling and its inhibition; format: binding; settings: with GABA; for inhibition of [3H]pTFD-di-iPr-BnOH photoincorporation into the β subunit: 300 μM etomidate, 30 μM allopregnanolone, fluorography
α1β3γ2L GABAARs [6] = molecular target: T1, α1β3γ2L GABAARs; assay: Inhibition of [3H]R-mTFD-MPAB photolabeling; format: binding
α1(S270I)β3γ2L receptors = α1(S270I)β3γ2L receptors (Homo sapiens, UniProt P14867+P18507+P28472, S297I); assay: Oocyte electrophysiology, enhancement of low-GABA currents, α1 S270I mutant; format: cell-based; settings: for enhancement of GABA currents compared to wild type: 5 μM etomidate, 8 μM R-mTFD-MPAB
Sequence of α1(S270I)β3γ2L receptors (P14867 28-456 S297I, one chain of several): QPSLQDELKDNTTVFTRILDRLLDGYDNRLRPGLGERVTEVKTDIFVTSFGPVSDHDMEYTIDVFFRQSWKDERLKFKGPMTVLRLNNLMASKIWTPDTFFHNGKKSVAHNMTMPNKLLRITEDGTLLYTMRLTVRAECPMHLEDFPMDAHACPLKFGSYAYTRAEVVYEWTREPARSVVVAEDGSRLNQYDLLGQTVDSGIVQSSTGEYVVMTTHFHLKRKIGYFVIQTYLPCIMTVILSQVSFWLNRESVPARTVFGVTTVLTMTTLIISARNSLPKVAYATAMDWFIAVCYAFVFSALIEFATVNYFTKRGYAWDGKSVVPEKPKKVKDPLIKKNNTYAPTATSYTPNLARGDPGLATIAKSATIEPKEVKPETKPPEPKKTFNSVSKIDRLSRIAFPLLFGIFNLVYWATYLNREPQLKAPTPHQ
Sequence of α1(S270I)β3γ2L receptors (P18507 40-475, one chain of several): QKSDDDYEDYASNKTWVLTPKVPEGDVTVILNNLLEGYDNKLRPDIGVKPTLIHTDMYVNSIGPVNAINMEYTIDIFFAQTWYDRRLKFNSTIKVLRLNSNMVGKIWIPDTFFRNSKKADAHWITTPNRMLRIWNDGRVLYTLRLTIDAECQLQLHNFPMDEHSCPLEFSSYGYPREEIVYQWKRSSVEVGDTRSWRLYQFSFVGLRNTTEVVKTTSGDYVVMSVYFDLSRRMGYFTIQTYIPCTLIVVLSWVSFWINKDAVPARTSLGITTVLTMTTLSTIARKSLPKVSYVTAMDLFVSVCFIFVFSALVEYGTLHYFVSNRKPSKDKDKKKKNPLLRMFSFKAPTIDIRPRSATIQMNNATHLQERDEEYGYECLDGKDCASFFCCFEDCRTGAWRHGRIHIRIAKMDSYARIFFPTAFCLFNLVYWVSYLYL

α1β3γ2L GABAARs [7] = molecular target: T1, α1β3γ2L GABAARs; assay: Inhibition of [3H]azietomidate photolabeling; format: binding; settings: in the presence of 300 μM etomidate
Xenopus laevis tadpoles = assay: Loss of righting reflexes; format: in vivo

T1 sequence (P18507 40-475, one chain of several): as above

CC(C)c1cc(Cl)cc(C(C)C)c1O [4-Cl-propofol]
selectivity favoring the etomidate site (α1β3γ2 GABAAR [1]): 4 fold

CC(C)c1cc(C(=O)c2ccccc2)cc(C(C)C)c1O [4-benzoylpropofol]
high affinity R-mTFD-MPAB site favored over the etomidate site (α1β3γ2 GABAAR [1]): 200 fold
low affinity R-mTFD-MPAB site favored over the etomidate sites (α1β3γ2 GABAAR [1]): 3 fold

OCc1ccccc1 [BnOH, benzyl alcohol]
LoRR at lower concentrations than modulation of [3H]muscimol binding (α1β3γ2L GABAARs [2]; tadpole LoRR vs HEK cell membranes): ~20 times
modulation of [3H]muscimol binding (α1β3γ2L GABAARs [2]; up to 50 mM): no modulation

CC(C)c1cccc(C(C)C)c1CO [Di-iPr-BnOH, (2,6-diisopropylphenyl)methanol]
selectivity favoring the etomidate site over R-mTFD-MPAB site (α1β3γ2 GABAAR [3]): 2–3 fold

NCCCC(=O)O [GABA, γ-aminobutyric acid]
elicited currents (α1β3γ2L GABAARs [4]; 1 mM GABA): 3.2 ± 1.5 μA
Hill coefficient nH of GABA concentration-response curve (α1β3γ2L GABAARs [4]; GABA alone): 1.0 ± 0.1

CC(=O)c1cc(C(C)C)c(O)c(C(C)C)c1 [Me–CO–]
selectivity favoring the R-mTFD-MPAB sites (α1β3γ2 GABAAR [1]): 1.5 fold

CC(C)c1cc(C(O)c2ccccc2)cc(C(C)C)c1O (centres unmarked) [Ph–C(OH)–]
selectivity favoring the R-mTFD-MPAB sites (α1β3γ2 GABAAR [1]): 5.3 fold

CC(C)c1cccc(C(C)C)c1O [Propofol]
selectivity favoring the etomidate site (α1β3γ2 GABAAR [1]): 5.5 fold
EC50 (α1β3 GABAARs): 7 ± 1.7 µM
extent of inhibition of [3H]pTFD-di-iPr-BnOH photolabeling (α1β3γ2L GABAARs [5]; 300 μM, β subunit): to the same extent as the background labeling

C=CCC1(c2cccc(C3(C(F)(F)F)N=N3)c2)C(=O)NC(=O)N(C)C1=O (centres unmarked) [R–mTFD-MPAB, (5-allyl-1-methyl-5-(3-(3-(trifluoromethyl)-3H-diazirin-3-yl)phenyl)pyrimidine-2,4,6(1H,3H,5H)-trione)]
non-specific [3H]R-mTFD-MPAB photolabeling (Bns) (α1β3γ2L GABAARs [6]; in the presence of 60 μM R-mTFD-MPAB): 13 ± 4%
enhancement of GABA currents compared to wild type (α1(S270I)β3γ2L receptors): significantly reduced

CC(=O)[C@H]1CC[C@H]2[C@@H]3CC[C@H]4C[C@H](O)CC[C@]4(C)[C@H]3CC[C@]12C [allopregnanolone]
inhibition of [3H]pTFD-di-iPr-BnOH photoincorporation into the β subunit (α1β3γ2L GABAARs [5]): little inhibition of photolabeling

CCOC(=O)c1cncn1[C@H](C)c1ccccc1 [etomidate]
inhibition of [3H]pTFD-di-iPr-BnOH photoincorporation into the β subunit (α1β3γ2L GABAARs [5]): little inhibition of photolabeling
non-specific [3H]azietomidate photolabeling (Bns) (α1β3γ2L GABAARs [7]): 13 ± 3%
enhancement of GABA currents compared to wild type (α1(S270I)β3γ2L receptors): comparable to that in wild-type

CC(C)c1cc(C2(C(F)(F)F)N=N2)cc(C(C)C)c1CO [pTFD-di-iPr-BnOH, (2,6-diisopropyl-4-(3-(trifluoromethyl)-3H-diazirin-3-yl)phenyl)methanol]
fraction of tadpoles that did not recover from anesthesia (Xenopus laevis tadpoles; at 2 μM): 4/7
fraction of tadpoles that did not recover from anesthesia (Xenopus laevis tadpoles; at 3 μM): 6/9
fraction of tadpoles that did not recover from anesthesia (Xenopus laevis tadpoles; at 10 μM): 7/10
increase in LoRR potency (Xenopus laevis tadpoles; relative to Di-iPr-BnOH): 6 fold
IC50 (α1β3γ2L GABAARs [6]): 73 ± 10 µM
reduction of enhancement compared to wild type (α1(S270I)β3γ2L receptors; 10 μM pTFD-di-iPr-BnOH): more than 50%

CC(C)c1cc(C(C)(C)C)cc(C(C)C)c1O [t-Bu–]
selectivity favoring the R-mTFD-MPAB sites (α1β3γ2 GABAAR [1]): 8 fold
